Reference: the NIST ThermoML archive (doi:10.1016/j.jct.2008.01.028)

Assay: wn = mass fraction of the nth substance listed
Settings: Liquid

CN(CCO)CCO [N-methyldiethanolamine] + O
Settings | mass density [kg/m3]
298.31 K, 205 kPa, w1 = 0.3 | 1023.7
298.31 K, 506 kPa, w1 = 0.3 | 1023.8
298.31 K, 1006 kPa, w1 = 0.3 | 1024
298.31 K, 2006 kPa, w1 = 0.3 | 1024.3
298.32 K, 5003 kPa, w1 = 0.3 | 1025.5
298.33 K, 206 kPa, w1 = 0.15 | 1009.9
298.33 K, 508 kPa, w1 = 0.15 | 1010
298.33 K, 1008 kPa, w1 = 0.15 | 1010.2
298.33 K, 2008 kPa, w1 = 0.15 | 1010.6
298.34 K, 5006 kPa, w1 = 0.15 | 1011.9
